# Patent publication US20210400977A1, “META-DIAMIDE COMPOUNDS FOR CONTROLLING INVERTEBRATE PESTS” (FMC Corporation, priority 2018, published 2021)
# Experiments:
# [1] = tested on: corn planthopper (Peregrinus maidis (Ashmead)); assay: Test C: control of corn planthopper through contact and/or systemic means; type: in vivo; settings: 144 h, sprayed at 250 ppm, assessed after 6 days
# Method: (§1) Test compounds were formulated using a solution containing 10% acetone, 90% water and 300 ppm Activator 90® non-ionic surfactant (Loveland Products, Loveland, Colo., USA). The formulated compounds were applied in 1 mL of liquid through an atomizer nozzle positioned 1.27 cm (0.5 inches) above the top of each test unit. Test compounds were sprayed at the rates indicated, and each test was replicated three times.
# For evaluating control of corn planthopper (Peregrinus maidis (Ashmead)) through contact and/or systemic means, the test unit consisted of a small open container with a 3-4-day-old corn (maize) plant inside. White sand was added to the top of the soil prior to application of the test compound.
# Test compounds were formulated and sprayed at 250 and/or 50 ppm. After spraying of the formulated test compound, the test units were allowed to dry for 1 h before they were post-infested with ˜15-20 nymphs (18-to-21-day-old). A black, screened cap was placed on the top of each test unit, and the test units were held for 6 days in a growth chamber at 22-24° C. and 50-70% relative humidity. Each test unit was then visually assessed for insect mortality.
# [2] = tested on: sweetpotato whitefly (Bemisia tabaci (Gennadius)); assay: Test G: control of sweetpotato whitefly through contact and/or systemic means; type: in vivo; settings: 312 h, assessed after 13 days
# Method: as §1
# For evaluating control of the sweetpotato whitefly (Bemisia tabaci (Gennadius)) through contact and/or systemic means, the test unit consisted of a small open container with a 12-14-day-old cotton plant or 7-9-day-old soybean plant inside. Prior to the spray application, both cotyledons were removed from the plant, leaving one true leaf for the assay. Adult whiteflies were allowed to lay eggs on the plant and then were removed from the test unit. Cotton or soybean plants infested with at least 15 eggs were submitted to the test for spraying.
# Test compounds were formulated and sprayed at 250 and/or 50 ppm. After spraying, the test units were allowed to dry for 1 hour. The cylinders were then removed, and the units were taken to a growth chamber and held for 13 days at 28° C. and 50-70% relative humidity. Each test unit was then visually assessed for insect mortality.
SMILES,melting point [°C],mortality at 250 ppm [1] [%],mortality at 50 ppm ([2]; sprayed at 50 ppm) [%],mortality at 250 ppm ([2]; sprayed at 250 ppm) [%]
CC(C)C(=O)NCc1ccc(Cl)c(NC(=O)C2C(c3cc(Cl)cc(Cl)c3)C2(Cl)Cl)c1 (stereo not shown) [Compound 136],187 to 191,–,–,–
CN(Cc1cc(NC(=O)C2C(c3cc(Cl)cc(Cl)c3)C2(F)F)ccc1Cl)C(=O)C1CC1 (stereo not shown) [Compound 32],151 to 155,–,–,–
O=C(NCc1nc(NC(=O)C2C(c3ccc(F)c(Cl)c3)C2(Cl)Cl)ccc1Br)C1CC1 (stereo not shown) [Compound 254],152 to 155,–,–,–
CCC(=O)NCc1cc(NC(=O)C2C(c3cc(Cl)cc(Cl)c3)C2(Cl)Cl)ccc1F (stereo not shown) [Compound 153],–,≥ 80,≥ 70,≥ 70
O=C(CC(F)(F)F)NCc1nc(NC(=O)C2C(c3ccc(F)c(Cl)c3)C2(Cl)Cl)ccc1Br (stereo not shown) [Compound 256],184 to 187,–,–,–
